Read-outs that look alike come from different tables or passages of the source.
Target: CCR5 receptors (Homo sapiens, UniProt P51681)
Test: inhibition of binding of HIV envelope protein (gp120) to CCR5 receptors
Conditions: procedure of Example 1 of EP 1 118 858 A2
Text: Biol., 60, 147-52 (1996); by using the intracellular calcium mobilisation assays as described by the same authors; and by their ability to inhibit binding of HIV envelope protein (gp120) to CCR5 receptors according to the procedure described in Example 1 of EP 1 118 858 A2 (pp 85-88). Cell lines expressing the receptor of interest include those naturally expressing the receptor, such as PM-1, or IL-2 stimulated peripheral blood lymphocytes (PBL), or a cell engineered to express a recombinant receptor, such as CHO, 300.19, L1.2 or HEK-293.
The ability of the compounds of formula (I) to inhibit binding of HIV envelope protein (gp120) to CCR5 receptors was determined by the procedure described in Example 1 of EP 1 118 858 A2.

[1] = IC50, inhibition of binding of HIV envelope protein (gp120) to CCR5 receptors

Sequence of CCR5 receptors (P51681 whole entry): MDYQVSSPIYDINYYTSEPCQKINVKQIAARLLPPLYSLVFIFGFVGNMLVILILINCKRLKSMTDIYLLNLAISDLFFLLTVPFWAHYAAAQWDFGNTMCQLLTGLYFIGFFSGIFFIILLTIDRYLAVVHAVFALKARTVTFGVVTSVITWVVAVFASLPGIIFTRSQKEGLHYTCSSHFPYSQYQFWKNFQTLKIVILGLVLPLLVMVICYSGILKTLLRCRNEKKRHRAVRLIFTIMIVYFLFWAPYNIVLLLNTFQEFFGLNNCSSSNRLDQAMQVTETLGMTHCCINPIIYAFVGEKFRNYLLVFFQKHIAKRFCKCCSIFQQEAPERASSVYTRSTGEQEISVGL

Row | IC50 (read-out: IC50, inhibition of binding of HIV envelope protein (gp120) to CCR5 receptors) [nM] | SMILES | IC50 [1] [nM]
1 |  | CC(=O)N[C@@H](CCN1C2CCC1CC(n1c(C)nc3c1CN(C(=O)C(C)C)CC3)C2)c1ccccc1 (stereo partly drawn) [Example 9, N-{(1S)-3-[3-endo-(5-Isobutyryl-2-methyl-4,5,6,7-tetrahydro-3H-imidazo[4,5-c]pyridin-3-yl)-8-azabicyclo[3.2.1]oct-8-yl]-1-phenylpropyl}acetamide] | 7
2 |  | COC(=O)N[C@@H](CCN1C2CCC1CC(n1c(C)nc3c1CN(C(C)=O)CC3)C2)c1cccc(F)c1 (stereo partly drawn) [Example 17, Methyl (1S)-3-[3-endo-(5-acetyl-2-methyl-4,5,6,7-tetrahydro-3H-imidazo[4,5-c]pyridin-3-yl)-8-azabicyclo[3.2.1]oct-8-yl]-1-(3-fluorophenyl)propylcarbamate] | 15
3 | 7 | COC(=O)N[C@@H](CCN1C2CCC1CC(n1c(C)nc3c1CCN(C(=O)OC)C3)C2)c1ccccc1 (stereo partly drawn) [Example 30, Methyl 1-endo-(8-{(3S)-3-[(methoxycarbonyl)amino]-3-phenylpropyl}-8-azabicyclo[3.2.1]oct-3-yl)-2-methyl-4,5,6,7-tetrahydro-1H-imidazo[4,5-c]pyridine-5-carboxylate] | 
4 |  | COC(=O)N1CCc2c(nc(C)n2C2CC3CCC(C2)N3CC[C@H](NC(C)=O)c2cccc(F)c2)C1 (stereo partly drawn) [Example 33, Methyl 1-endo-{8-[(3S)-3-(acetylamino)-3-(3-fluorophenyl)propyl]-8-azabicyclo[3.2.1]oct-3-yl}-2-methyl-4,5,6,7-tetrahydro-1H-imidazo[4,5-c]pyridine-5-carboxylate] | 23
5 |  | COC(=O)N1CCc2c(nc(C)n2C2CC3CCC(C2)N3CC[C@H](NC(C)=O)c2cccc(F)c2)C1 (stereo partly drawn) [Example 44, Methyl 1-endo-{8-[(3S)-3-(acetamido)-3-(3-fluorophenyl)propyl]-8-azabicyclo[3.2.1]oct-3-yl}-2-methyl-4,5,6,7-tetrahydro-1H-imidazo[4,5-c]pyridine-5-carboxylate monohydrate] | 14

— patent US7579471B2, “Tropane derivatives useful in therapy” (Pfizer, Inc., priority 2002, dated 2009)
